The values that follow come from ChEMBL document CHEMBL5291721, “A preclinical secondary pharmacology resource illuminates target-adverse drug reaction associations of marketed drugs” (Nat Commun, 2023).

Molecules are shown by their SMILES.

The target of assay [1] is T1, Neuropeptide Y receptor type 1 (Homo sapiens, UniProt P25929).
T1 sequence (P25929 whole entry): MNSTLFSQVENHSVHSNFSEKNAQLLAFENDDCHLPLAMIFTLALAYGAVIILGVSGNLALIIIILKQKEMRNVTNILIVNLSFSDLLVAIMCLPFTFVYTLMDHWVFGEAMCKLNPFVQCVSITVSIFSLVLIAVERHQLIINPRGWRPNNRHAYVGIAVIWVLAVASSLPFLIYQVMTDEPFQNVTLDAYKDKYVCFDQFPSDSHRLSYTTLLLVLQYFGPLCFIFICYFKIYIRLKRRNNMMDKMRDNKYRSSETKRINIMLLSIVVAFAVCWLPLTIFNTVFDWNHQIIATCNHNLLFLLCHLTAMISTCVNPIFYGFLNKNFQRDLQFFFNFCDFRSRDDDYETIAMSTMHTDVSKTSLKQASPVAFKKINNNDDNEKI

The target in assay [2] is T2, 5-hydroxytryptamine receptor 1A (Homo sapiens, UniProt P08908).
T2 sequence (P08908 whole entry): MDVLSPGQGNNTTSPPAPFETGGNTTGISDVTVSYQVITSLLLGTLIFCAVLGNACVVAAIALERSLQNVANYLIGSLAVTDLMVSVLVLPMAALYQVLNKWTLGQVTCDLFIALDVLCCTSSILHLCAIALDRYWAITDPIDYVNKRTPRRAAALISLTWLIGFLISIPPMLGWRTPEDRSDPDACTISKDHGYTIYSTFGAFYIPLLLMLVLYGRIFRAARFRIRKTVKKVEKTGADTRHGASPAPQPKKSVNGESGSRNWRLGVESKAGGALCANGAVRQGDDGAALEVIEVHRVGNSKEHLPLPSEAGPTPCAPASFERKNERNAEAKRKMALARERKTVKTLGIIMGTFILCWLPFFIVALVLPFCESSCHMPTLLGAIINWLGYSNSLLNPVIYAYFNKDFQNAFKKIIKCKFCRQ
It counts as functional, cell-based.

Assay [3] concerns the target Voltage-gated inwardly rectifying potassium channel KCNH2 (Homo sapiens, UniProt Q12809). It counts as functional. The note with it: read-out: AC50.
The next assay addresses Melanocortin receptor 3 (Homo sapiens, UniProt P41968).
The target in assay [4] is Gamma-aminobutyric acid receptor subunit alpha-1 (Rattus norvegicus, UniProt P62813).
Assay [5] deals with Glutamate receptor ionotropic, NMDA 1 (Rattus norvegicus, UniProt P35439).
For assay [6], the target named is Beta-2 adrenergic receptor (Homo sapiens, UniProt P07550).
Assay [7] concerns the target Neuronal acetylcholine receptor subunit alpha-4 (Homo sapiens, UniProt P43681).
Assay [8] has as its target T3, Alpha-1A adrenergic receptor (Homo sapiens, UniProt P35348).
T3 sequence (P35348 whole entry): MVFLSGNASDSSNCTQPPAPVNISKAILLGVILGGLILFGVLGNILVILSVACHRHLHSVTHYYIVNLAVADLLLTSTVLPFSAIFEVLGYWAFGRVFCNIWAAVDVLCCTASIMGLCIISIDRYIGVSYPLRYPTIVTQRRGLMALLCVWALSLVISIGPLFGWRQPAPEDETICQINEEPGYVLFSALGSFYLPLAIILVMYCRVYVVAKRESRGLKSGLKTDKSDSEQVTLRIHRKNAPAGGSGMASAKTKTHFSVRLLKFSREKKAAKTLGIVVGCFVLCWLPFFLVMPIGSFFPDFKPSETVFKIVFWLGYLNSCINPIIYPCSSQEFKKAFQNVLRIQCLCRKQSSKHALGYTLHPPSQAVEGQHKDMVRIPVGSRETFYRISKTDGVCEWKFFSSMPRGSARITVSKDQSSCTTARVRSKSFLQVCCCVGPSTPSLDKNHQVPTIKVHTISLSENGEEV
It counts as functional, cell-based.

The target of assay [9] is T4, Alpha-2B adrenergic receptor (Homo sapiens, UniProt P18089).
T4 sequence (P18089 whole entry): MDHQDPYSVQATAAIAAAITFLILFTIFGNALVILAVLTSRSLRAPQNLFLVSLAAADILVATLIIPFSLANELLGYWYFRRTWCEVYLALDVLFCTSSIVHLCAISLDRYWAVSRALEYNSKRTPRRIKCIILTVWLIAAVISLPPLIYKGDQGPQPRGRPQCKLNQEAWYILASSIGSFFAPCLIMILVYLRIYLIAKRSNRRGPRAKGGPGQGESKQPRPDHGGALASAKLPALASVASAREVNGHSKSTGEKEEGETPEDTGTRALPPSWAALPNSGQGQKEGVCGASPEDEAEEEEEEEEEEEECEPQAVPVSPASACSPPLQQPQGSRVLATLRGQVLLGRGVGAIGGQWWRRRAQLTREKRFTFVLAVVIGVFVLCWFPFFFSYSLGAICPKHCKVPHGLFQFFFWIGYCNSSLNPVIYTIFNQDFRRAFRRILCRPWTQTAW

Another assay has as its target Cannabinoid receptor 1 (Homo sapiens, UniProt P21554). The format is functional, cell-based.
For assay [10], the target named is T5, Muscarinic acetylcholine receptor M1 (Homo sapiens, UniProt P11229).
T5 sequence (P11229 whole entry): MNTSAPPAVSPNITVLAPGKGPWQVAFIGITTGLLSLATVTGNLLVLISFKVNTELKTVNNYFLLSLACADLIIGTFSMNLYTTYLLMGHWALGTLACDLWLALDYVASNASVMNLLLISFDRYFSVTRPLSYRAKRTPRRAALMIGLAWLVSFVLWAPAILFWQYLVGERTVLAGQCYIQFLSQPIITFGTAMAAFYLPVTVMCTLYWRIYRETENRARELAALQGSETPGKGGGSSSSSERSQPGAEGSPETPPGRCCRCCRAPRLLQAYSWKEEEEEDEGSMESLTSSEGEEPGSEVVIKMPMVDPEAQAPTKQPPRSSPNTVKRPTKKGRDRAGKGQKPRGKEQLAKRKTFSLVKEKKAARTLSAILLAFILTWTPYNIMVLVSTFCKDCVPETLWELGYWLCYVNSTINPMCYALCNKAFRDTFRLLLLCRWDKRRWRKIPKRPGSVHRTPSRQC
The format is functional.

As a reminder, the AC50 is the midpoint of the concentration-response curve, whichever way the signal moves.
Also: assay procedure not described here.

Melanocortin receptor 3, sequence (P41968 whole entry): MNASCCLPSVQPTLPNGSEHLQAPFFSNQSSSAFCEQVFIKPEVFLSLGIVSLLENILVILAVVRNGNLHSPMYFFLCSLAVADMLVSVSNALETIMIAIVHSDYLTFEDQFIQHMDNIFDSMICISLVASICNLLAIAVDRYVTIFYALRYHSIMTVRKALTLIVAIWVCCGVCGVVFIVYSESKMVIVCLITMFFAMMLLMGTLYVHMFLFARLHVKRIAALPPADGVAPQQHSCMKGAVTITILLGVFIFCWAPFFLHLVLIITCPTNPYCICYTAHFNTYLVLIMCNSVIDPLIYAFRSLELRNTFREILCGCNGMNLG
Cannabinoid receptor 1, sequence (P21554 whole entry): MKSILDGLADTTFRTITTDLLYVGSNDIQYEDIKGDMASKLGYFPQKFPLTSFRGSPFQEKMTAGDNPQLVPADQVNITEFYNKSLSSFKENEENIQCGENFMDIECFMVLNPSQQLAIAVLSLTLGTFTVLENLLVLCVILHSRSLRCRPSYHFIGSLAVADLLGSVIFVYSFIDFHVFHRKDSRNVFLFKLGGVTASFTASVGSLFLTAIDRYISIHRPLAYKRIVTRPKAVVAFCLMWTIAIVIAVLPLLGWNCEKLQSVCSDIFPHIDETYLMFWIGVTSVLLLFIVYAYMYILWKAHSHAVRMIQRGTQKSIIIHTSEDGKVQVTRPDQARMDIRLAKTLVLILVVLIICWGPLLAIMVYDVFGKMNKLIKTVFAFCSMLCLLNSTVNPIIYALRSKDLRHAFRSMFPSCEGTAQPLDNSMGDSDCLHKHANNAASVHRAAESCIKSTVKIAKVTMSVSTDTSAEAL
Voltage-gated inwardly rectifying potassium channel KCNH2, sequence (Q12809 whole entry): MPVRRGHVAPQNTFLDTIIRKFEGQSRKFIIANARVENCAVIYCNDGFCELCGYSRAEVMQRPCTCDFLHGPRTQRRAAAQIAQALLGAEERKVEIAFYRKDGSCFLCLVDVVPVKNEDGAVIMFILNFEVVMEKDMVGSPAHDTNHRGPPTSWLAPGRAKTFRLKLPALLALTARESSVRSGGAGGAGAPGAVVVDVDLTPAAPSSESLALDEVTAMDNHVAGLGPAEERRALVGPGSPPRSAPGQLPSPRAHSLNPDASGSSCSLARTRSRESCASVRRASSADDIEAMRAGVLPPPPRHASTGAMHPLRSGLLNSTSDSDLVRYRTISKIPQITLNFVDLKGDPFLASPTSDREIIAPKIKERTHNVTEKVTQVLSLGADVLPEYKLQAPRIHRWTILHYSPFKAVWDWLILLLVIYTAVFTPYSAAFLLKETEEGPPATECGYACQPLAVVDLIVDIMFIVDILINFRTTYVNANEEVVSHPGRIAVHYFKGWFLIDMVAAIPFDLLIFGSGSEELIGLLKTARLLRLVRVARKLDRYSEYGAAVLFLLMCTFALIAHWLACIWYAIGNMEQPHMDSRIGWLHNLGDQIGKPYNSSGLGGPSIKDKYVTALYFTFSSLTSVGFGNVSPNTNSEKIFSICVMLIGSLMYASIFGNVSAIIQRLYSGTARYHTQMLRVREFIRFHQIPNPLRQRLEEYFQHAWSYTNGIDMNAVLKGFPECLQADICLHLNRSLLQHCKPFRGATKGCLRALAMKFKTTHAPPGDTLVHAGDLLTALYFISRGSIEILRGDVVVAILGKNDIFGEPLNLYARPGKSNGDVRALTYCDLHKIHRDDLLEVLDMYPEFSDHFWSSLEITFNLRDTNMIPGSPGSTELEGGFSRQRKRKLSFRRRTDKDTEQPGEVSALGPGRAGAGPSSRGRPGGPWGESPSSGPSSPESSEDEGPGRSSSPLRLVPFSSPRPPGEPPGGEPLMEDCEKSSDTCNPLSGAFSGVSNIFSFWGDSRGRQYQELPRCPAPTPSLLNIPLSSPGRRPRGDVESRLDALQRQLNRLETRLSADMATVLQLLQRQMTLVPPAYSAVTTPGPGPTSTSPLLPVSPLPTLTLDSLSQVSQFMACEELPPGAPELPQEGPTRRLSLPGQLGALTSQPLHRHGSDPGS
Beta-2 adrenergic receptor, sequence (P07550 whole entry): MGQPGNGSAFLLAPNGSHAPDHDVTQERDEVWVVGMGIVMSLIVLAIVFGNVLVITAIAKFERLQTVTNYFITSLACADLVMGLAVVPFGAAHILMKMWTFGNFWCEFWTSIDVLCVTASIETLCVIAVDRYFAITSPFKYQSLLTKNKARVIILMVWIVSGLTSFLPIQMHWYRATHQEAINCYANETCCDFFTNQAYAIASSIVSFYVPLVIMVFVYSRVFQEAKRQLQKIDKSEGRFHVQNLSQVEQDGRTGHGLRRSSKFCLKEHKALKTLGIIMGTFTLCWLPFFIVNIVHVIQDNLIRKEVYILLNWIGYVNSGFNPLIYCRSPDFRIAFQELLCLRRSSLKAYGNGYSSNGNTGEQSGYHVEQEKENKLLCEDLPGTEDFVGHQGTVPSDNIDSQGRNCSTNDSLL
Neuronal acetylcholine receptor subunit alpha-4, sequence (P43681 whole entry): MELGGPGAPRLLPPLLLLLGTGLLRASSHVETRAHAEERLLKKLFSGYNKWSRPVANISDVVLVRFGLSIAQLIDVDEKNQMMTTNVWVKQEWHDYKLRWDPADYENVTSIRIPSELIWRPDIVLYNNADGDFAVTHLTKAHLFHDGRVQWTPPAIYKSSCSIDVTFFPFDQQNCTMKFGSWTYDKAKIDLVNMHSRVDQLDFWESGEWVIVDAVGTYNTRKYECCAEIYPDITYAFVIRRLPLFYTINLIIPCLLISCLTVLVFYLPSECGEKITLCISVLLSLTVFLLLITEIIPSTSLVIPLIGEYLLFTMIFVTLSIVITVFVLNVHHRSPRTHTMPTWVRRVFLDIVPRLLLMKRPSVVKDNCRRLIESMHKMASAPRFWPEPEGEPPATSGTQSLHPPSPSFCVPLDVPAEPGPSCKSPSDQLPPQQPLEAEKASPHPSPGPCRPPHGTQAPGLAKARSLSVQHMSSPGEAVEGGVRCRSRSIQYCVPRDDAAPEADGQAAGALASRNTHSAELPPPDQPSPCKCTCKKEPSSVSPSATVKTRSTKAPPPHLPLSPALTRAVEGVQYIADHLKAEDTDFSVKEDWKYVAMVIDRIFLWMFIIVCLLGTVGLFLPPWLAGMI
Gamma-aminobutyric acid receptor subunit alpha-1, sequence (P62813 whole entry): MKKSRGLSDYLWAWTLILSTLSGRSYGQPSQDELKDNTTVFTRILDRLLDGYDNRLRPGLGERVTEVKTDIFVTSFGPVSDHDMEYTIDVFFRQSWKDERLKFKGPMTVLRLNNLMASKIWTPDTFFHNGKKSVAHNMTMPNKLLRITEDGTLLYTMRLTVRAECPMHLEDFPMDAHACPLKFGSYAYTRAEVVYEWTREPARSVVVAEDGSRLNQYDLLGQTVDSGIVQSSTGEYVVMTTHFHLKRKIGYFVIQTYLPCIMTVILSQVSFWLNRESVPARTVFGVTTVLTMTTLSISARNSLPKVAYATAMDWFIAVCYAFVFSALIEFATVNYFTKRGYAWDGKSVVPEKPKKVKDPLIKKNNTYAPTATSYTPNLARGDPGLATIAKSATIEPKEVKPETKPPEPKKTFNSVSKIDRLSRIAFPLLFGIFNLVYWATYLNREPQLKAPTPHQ

With `CCCc1nc(C(C)(C)O)c(C(=O)OCc2oc(=O)oc2C)n1Cc1ccc(-c2ccccc2-c2nnn[nH]2)cc1` [OLMESARTAN MEDOXOMIL], the AC50 in assay [1] is more than 10 µM; in assay [2] it was more than 10 µM; in [3] it was more than 30 µM; at Melanocortin receptor 3, more than 50 µM; in [4], more than 10 µM; in assay [5], more than 10 µM. Also, the AC50 in assay [6] is more than 10 µM; in assay [7], more than 10 µM; in assay [8], more than 30 µM; in assay [9], more than 10 µM; at Cannabinoid receptor 1, more than 30 µM; in [10], more than 10 µM.

In the case of `COc1ccc2c3c1O[C@H]1C(=O)CC[C@@]4(O)[C@@H](C2)N(C)CC[C@]314` [OXYCODONE], the AC50 (in assay [1]; in assay [2]; in assay [3]; on Melanocortin receptor 3; in [4]; in [5]) was more than 30 µM in each case. The AC50 (in assay [6]; in assay [7]; in assay [8]; in [9]; at Cannabinoid receptor 1; in assay [10]) was more than 30 µM throughout.

As to `CN1CCC(=C2c3ccccc3CCc3sccc32)CC1` [PIZOTYLINE], the concentration at half-maximal activity (AC50) is more than 30 µM in [1]; 3.56 µM in assay [2]; 2.31 µM in [3]; more than 30 µM on Melanocortin receptor 3; more than 10 µM in assay [4]; more than 10 µM in assay [5]. The AC50 in assay [6] is 5.8 µM; in [7] it was more than 10 µM; in assay [8], more than 30 µM; in assay [9], 0.51 µM; on Cannabinoid receptor 1 it was more than 30 µM; in assay [10] it was 0.093 µM.

As for `Cc1ccc(-n2nccn2)c(C(=O)N2CCN(c3nc4cc(Cl)ccc4o3)CC[C@H]2C)c1` [SUVOREXANT], the AC50 in [1] was more than 30 µM; in [2] it was more than 30 µM; in assay [3], 22 µM; at Melanocortin receptor 3 it was more than 30 µM; in [4] it was more than 30 µM; in [5] it was more than 30 µM. Also, the concentration at half-maximal activity (AC50) was more than 30 µM in assay [6]; more than 30 µM in assay [7]; more than 30 µM in assay [8]; 26 µM in assay [9]; more than 30 µM at Cannabinoid receptor 1; more than 30 µM in [10].

Turning to `COc1cc2c(N)nc(N3CCN(C(=O)OCC(C)(C)O)CC3)nc2c(OC)c1OC` [TRIMAZOSIN], the AC50 in assay [1] is more than 30 µM; in [2], more than 30 µM; in assay [3] it was 17 µM; at Melanocortin receptor 3 it was more than 30 µM; in [4], more than 30 µM; in [5], more than 30 µM. The concentration at half-maximal activity (AC50) (in assay [6]; in [7]; in assay [8]; in assay [9]; at Cannabinoid receptor 1; in assay [10]) was more than 30 µM each time.

With `C=CCN1CCCC1CNC(=O)c1cc(S(N)(=O)=O)cc(OC)c1OC` (configuration not stated) [VERALIPRIDE], the concentration at half-maximal activity (AC50) is more than 30 µM in [1]; more than 30 µM in assay [2]; 7.6 µM in assay [3]; more than 30 µM at Melanocortin receptor 3; more than 30 µM in assay [4]; more than 30 µM in assay [5]. Further, the AC50 in [6] was more than 30 µM; in [7] it was more than 30 µM; in assay [8], more than 30 µM; in assay [9], 3.2 µM; on Cannabinoid receptor 1 it was more than 30 µM; in assay [10], more than 30 µM.
